Data taken from US7205295B2, “Benzoxazin-3-ones and derivatives thereof as therapeutic agents” (Warner-Lambert Company LLC, priority 2002, dated 2007).

Molecular target: T1, PI3Kγ (p101/p110γ protein) (Homo sapiens, UniProt P48736)
T1 construct: HA; made in house; host or cells: Spodoptera frugiperda (Sf9) cells, baculovirus co-infection
Assay: PI3Kγ In Vitro Kinase Assay
Type: biochemical
Details: purified recombinant p101/p110γ with G protein β1/γ2 subunits; 20 μM ATP, 25 μM PIP2; 20 minutes at room temperature
Description: Spodtera frugiperda cells, grown in ESF921 media, were coinfected with baculovirus expressing a glu-tagged p101 and baculovirus expressing an HA-tagged p110γ, at a 3:1 ratio of p101 baculovirus to p110γ baculovirus. Sf9 cells were grown to 1×10^7 total cells/mL in 10L bioreactors and harvested 48-72 hours post infection. Samples of infected cells were then tested for expression of p101/p110γ PI3 kinase by immunoprecipitation and Western Blot analysis methods (see below). […] NaCl was added to 150 mM, and sodium cholate was added to 1% and mixed for another 45 minutes. The lysates were clarified by centrifugation for 25 minutes at 14,000 rpm. The lysates were then loaded over anti-glu-linked Protein-G Sepaharose beads (Covance Research Products, Richmond, Calif.) using 20 mL resin/50 g cell paste. […] PI3Kγ was eluted with 6 column volumes of wash buffer that contain 100 μg/mL of a peptide that competes for binding of the glu tag. […] The fractions were stored at -80° C. until further use. Spodtera frugiperda cells were coinfected with baculovirus expressing a glu-tagged G protein β1 and baculovirus expressing a G protein […] at a 1:1 ratio of glu-tagged G protein β1 baculovirus to G protein β2 baculovirus. Sf9 cells are grown in 10 L bioreactors and harvested 48-72 hours post infection. Samples of infected cells were tested for G protein β1/β2 expression by Western Blot analysis, as described below. Cell lysates were homogenized and loaded onto a column of glu-tagged beads as in Biological Example 1 and competed off the column with a glu peptide as described in Biological Example 1. The inhibitory properties of the compounds in Table 1 were assayed in an in vitro PI3K assay. In a 96-well polypropylene plate, each well was spotted with 2 μL of […] the desired final concentration of compound in DMSO. Purified recombinant p101/p110γ protein (0.03 μg; 2.7 nM) and G protein β1/γ2 subunits (0.09 μg; 57.7 nM) for each reaction was combined in the assay buffer (30 mM HEPES, 100 mM NaCl, 1 mM EGTA, and 1 mM DTT). ATP and [γ-^32P-ATP] (0.09 μCi) were added to this mixture so that the final ATP concentration in the reaction was 20 μM. Lipid micelles were formed by sonicating phosphatidylinositol-4,5-diphosphate (PIP2), phosphatidylethanolamine (PE), and Na-cholate in the assay buffer for 10 minutes, adding MgCL2 and incubating on ice for 20 minutes, for final concentrations of 25 μM PIP2, 300 [M PE, 0.02% Na-cholate, and 10 mM MgCl2 in the reaction. The reactions were started by adding equal volumes lipid and enzyme mixture in a total volume of 50 μL, allowed to run for 20 minutes at room temperature, and stopped with 100 μL 75 mM H3PO4. The lipid product was transferred to a glass fiber filter plate and washed with 75 mM H3PO4 several times. The presence of radioactive lipid product (PIP3) was measured by adding Wallac Optiphase mix to each well and counting in a Wallac 1450 Trilux plate reader (PerkinElmer Life Sciences Inc., Boston, Mass. 02118).

T1 sequence (P48736 whole entry, species assumed): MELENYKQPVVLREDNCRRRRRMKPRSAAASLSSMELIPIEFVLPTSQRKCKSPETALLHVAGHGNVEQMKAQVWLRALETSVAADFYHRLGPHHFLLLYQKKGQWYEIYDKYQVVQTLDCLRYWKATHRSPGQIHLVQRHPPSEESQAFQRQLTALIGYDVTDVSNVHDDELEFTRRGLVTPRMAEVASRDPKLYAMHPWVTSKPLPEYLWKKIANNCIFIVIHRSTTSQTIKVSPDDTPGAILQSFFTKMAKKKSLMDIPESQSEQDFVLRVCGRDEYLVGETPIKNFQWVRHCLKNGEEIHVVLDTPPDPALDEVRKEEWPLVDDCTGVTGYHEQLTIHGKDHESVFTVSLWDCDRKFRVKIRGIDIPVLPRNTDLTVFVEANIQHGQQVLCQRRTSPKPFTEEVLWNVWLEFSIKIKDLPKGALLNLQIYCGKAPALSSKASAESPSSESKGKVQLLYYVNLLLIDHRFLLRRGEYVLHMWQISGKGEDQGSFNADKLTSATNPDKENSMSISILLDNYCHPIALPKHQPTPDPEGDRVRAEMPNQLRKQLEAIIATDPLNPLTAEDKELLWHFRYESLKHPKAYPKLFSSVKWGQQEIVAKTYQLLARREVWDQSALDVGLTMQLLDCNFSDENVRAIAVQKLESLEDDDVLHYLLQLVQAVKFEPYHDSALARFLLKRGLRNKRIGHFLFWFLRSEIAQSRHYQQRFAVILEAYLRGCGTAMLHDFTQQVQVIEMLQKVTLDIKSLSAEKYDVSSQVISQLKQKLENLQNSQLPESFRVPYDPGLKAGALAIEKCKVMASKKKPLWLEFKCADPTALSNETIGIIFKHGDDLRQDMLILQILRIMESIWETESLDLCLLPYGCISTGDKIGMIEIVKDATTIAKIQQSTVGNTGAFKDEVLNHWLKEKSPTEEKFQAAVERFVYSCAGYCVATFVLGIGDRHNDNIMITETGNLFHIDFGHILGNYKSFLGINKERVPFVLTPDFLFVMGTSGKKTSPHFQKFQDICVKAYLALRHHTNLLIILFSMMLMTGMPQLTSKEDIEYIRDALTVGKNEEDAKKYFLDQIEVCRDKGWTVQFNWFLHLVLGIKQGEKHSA
T1 sequence (Q8WYR1 whole entry partner, species assumed): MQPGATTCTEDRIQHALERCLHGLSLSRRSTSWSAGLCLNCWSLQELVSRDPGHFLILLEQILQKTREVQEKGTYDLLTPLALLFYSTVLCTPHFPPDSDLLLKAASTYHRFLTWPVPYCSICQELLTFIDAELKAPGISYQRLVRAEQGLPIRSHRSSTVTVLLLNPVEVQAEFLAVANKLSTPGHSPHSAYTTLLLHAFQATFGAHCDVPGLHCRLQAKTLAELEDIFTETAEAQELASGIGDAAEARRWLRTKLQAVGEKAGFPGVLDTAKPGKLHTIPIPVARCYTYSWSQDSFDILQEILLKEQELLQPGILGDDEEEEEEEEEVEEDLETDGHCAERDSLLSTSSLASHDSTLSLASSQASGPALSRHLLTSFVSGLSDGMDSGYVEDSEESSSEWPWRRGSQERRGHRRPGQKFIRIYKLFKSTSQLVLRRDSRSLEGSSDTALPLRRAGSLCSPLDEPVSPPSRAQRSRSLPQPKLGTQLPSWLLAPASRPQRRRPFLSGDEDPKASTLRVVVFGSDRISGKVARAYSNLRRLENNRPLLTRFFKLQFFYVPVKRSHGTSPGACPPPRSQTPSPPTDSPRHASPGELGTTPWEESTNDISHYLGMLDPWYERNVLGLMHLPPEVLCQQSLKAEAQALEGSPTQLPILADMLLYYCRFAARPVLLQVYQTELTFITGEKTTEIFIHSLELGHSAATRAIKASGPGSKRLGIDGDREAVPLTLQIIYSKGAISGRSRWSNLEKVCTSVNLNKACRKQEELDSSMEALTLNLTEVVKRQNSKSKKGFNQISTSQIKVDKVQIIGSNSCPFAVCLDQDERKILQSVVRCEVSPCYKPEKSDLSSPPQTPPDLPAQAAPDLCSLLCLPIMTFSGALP

Row | Compound | IC50
1 | C=Cc1cc(CN2C(=O)COc3ccc(C=C4SC(=S)NC4=O)cc32)cc(C(C)(C)C)c1 [Example 56, 4-(3-tert-Butyl-5-vinyl-benzyl)-6-(4-oxo-2-thioxo-thiazolidin-5-ylidenemethyl)-4H-1,4-benzoxazin-3-one] | 18 nM
2 | COC(=O)c1cc(CN2C(=O)COc3ccc(C=C4SC(=S)NC4=O)cc32)cc(C(C)(C)C)c1 [Example 57, 3-tert-Butyl-5-[3-oxo-6-(4-oxo-2-thioxo-thiazolidin-5-ylidenemethyl)-2,3-dihydro-1,4-benzoxazin-4-ylmethyl]-benzoic acid methyl ester] | 29 nM
3 | CC(C)(C)c1cc(CN2C(=O)COc3ccc(C=C4SC(=S)NC4=O)cc32)cc(C(=O)O)c1 [Example 58, 3-tert-Butyl-5-[3-oxo-6-(4-oxo-2-thioxo-thiazolidin-5-ylidenemethyl)-2,3-dihydro-1,4-benzoxazin-4-ylmethyl]-benzoic acid] | 32 nM
4 | CC(C)(C)OC(=O)CNC(=O)c1cc(CN2C(=O)COc3ccc(C=C4SC(=S)NC4=O)cc32)cc(C(C)(C)C)c1 [Example 59, {3-tert-Butyl-5-[3-oxo-6-(4-oxo-2-thioxo-thiazolidin-5-ylidenemethyl)-2,3-dihydro-1,4-benzoxazin-4-ylmethyl]-benzoylamino}-acetic acid tert-butyl ester] | 70 nM
5 | CC(=O)c1cc(CN2C(=O)COc3ccc(C=C4SC(=S)NC4=O)cc32)cc(C(C)(C)C)c1 [Example 64, 4-(3-Acetyl-5-tert-butyl-benzyl)-6-(4-oxo-2-thioxo-thiazolidin-5-ylidenemethyl)-4H-1,4-benzoxazin-3-one] | 16 nM
6 | CC(C)(C)c1cc(CN2C(=O)COc3ccc(C=C4SC(=S)NC4=O)cc32)cc(-c2ccccc2)c1 [Example 65, 4-(5-tert-Butyl-biphenyl-3-ylmethyl)-6-(4-oxo-2-thioxo-thiazolidin-5-ylidenemethyl)-4H-1,4-benzoxazin-3-one] | 95 nM
7 | CC(C)(C)c1cc(CN2C(=O)COc3ccc(C=C4SC(=O)NC4=O)cc32)cc(C(C)(C)C)n1 [Example 66, 5-[4-(2,6-Di-tert-butyl-pyridin-4-ylmethyl)-3-oxo-3,4-dihydro-2H-1,4-benzoxazin-6-ylmethylene]-thiazolidine-2,4-dione] | 257 nM
8 | Cc1cc(C)cc(CN2C(=O)COc3c(Cl)cc(C=C4SC(=S)NC4=O)cc32)c1 [Example 67, 8-Chloro-4-(3,5-dimethyl-benzyl)-6-(4-oxo-2-thioxo-thiazolidin-5-ylidenemethyl)-4H-1,4-benzoxazin-3-one] | 60 nM
9 | Cc1cc(C)cc(CN2C(=O)COc3c(Cl)cc(C=C4SC(=O)NC4=O)cc32)c1 [Example 68, 5-[8-Chloro-4-(3,5-dimethyl-benzyl)-3-oxo-3,4-dihydro-2H-1,4-benzoxazin-6-ylmethylene]-thiazolidine-2,4-dione] | 555 nM
10 | Cc1cc(C)cc(CN2C(=O)COc3c(F)cc(C=C4SC(=S)NC4=O)cc32)c1 [Example 69, 4-(3,5-Dimethyl-benzyl)-8-fluoro-6-(4-oxo-2-thioxo-thiazolidin-5-ylidenemethyl)-4H-1,4-benzoxazin-3-one] | 8 nM
11 | O=C1NC(=S)SC1=Cc1cc(F)c2c(c1)N(Cc1ccc(CN3CCOCC3)cc1)C(=O)CO2 [Example 71, 8-Fluoro-4-(4-morpholin-4-ylmethyl-benzyl)-6-(4-oxo-2-thioxo-thiazolidin-5-ylidenemethyl)-4H-1,4-benzoxazin-3-one] | 6 nM
12 | CCN(CC)Cc1ccc(CN2C(=O)COc3c(F)cc(C=C4SC(=S)NC4=O)cc32)cc1 [Example 72, 4-(4-Diethylaminomethyl-benzyl)-8-fluoro-6-(4-oxo-2-thioxo-thiazolidin-5-ylidenemethyl)-4H-1,4-benzoxazin-3-one] | 14 nM
13 | O=C1NC(=S)SC1=Cc1cc(F)c2c(c1)N(Cc1ccc(CN3CCCCC3)cc1)C(=O)CO2 [Example 73, 8-Fluoro-6-(4-oxo-2-thioxo-thiazolidin-5-ylidenemethyl)-4-(4-piperidin-1-ylmethyl-benzyl)-4H-1,4-benzoxazin-3-one] | 7 nM
14 | CC(C)(C)OC(=O)N1CCN(Cc2ccc(CN3C(=O)COc4ccc(C=C5SC(=S)NC5=O)cc43)cc2)CC1 [Example 74, 4-{4-[3-Oxo-6-(4-oxo-2-thioxo-thiazolidin-5-ylidenemethyl)-2,3-dihydro-1,4-benzoxazin-4-ylmethyl]-benzyl}-piperazine-1-carboxylic acid tert-butyl ester] | 19 nM
15 | CC(C)(C)OC(=O)N1CCN(Cc2ccc(CN3C(=O)COc4ccc(C=C5SC(=O)NC5=O)cc43)cc2)CC1 [Example 75, 4-{4-[6-(2,4-dioxo-thiazolidin-5-ylidenemethyl)-3-oxo-2,3-dihydro-1,4-benzoxazin-4-ylmethyl]-benzyl}-piperazine-1-carboxylic acid tert-butyl ester] | 155 nM
16 | CCN(CC)Cc1ccc(CN2C(=O)COc3c(Cl)cc(C=C4SC(=S)NC4=O)cc32)cc1 [Example 78, 8-Chloro-4-(4-diethylaminomethyl-benzyl)-6-(4-oxo-2-thioxo-thiazolidin-5-ylidenemethyl)-4H-1,4-benzoxazin-3-one] | 57 nM

Further molecules by falling IC50, results first:

Row | IC50 | Compound
17 | 850 nM | CC(c1cc(C(C)(C)C)cc(C(C)(C)C)c1)N1C(=O)COc2ccc(C=C3SC(=S)NC3=O)cc21 (stereo not shown) [Example 62, 4-[1-(3,5-Di-tert-butyl-phenyl)-ethyl]-6-(4-oxo-2-thioxo-thiazolidin-5-ylidenemethyl)-4H-1,4-benzoxazin-3-one]
18 | 70 nM | Cc1cc(C=C2SC(=S)NC2=O)cc2c1OCC(=O)N2Cc1cc(C(C)(C)C)cc(C(C)(C)C)c1 [Example 61, 4-(3,5-Di-tert-butyl-benzyl)-8-methyl-6-(4-oxo-2-thioxo-thiazolidin-5-ylidenemethyl)-4H-1,4-benzoxazin-3-one]
19 | 49 nM | CCc1cc(CN2C(=O)COc3ccc(C=C4SC(=S)NC4=O)cc32)cc(C(C)(C)C)c1 [Example 63, 4-(3-tert-Butyl-5-ethyl-benzyl)-6-(4-oxo-2-thioxo-thiazolidin-5-ylidenemethyl)-4H-1,4-benzoxazin-3-one]
20 | 40 nM | CC(C)(C)c1cc(CN2C(=O)COc3c(F)cc(C=C4SC(=S)NC4=O)cc32)cc(C(C)(C)C)c1 [Example 54, 4-(3,5-Di-tert-butyl-benzyl)-8-fluoro-6-(4-oxo-2-thioxo-thiazolidin-5-ylidenemethyl)-4H-1,4-benzoxazin-3-one]
21 | 26 nM | CC(C)(C)c1cc(CN2C(=O)COc3ccc(C=C4SC(=S)NC4=O)cc32)cc(C(=O)NCC(=O)O)c1 [Example 60, {3-tert-Butyl-5-[3-oxo-6-(4-oxo-2-thioxo-thiazolidin-5-ylidenemethyl)-2,3-dihydro-1,4-benzoxazin-4-ylmethyl]-benzoylamino}-acetic acid]
22 | 21 nM | CCCCN1CCN(Cc2ccc(CN3C(=O)COc4ccc(C=C5SC(=S)NC5=O)cc43)cc2)CC1 [Example 77, 4-[4-(4-Butyl-piperazin-1-ylmethyl)-benzyl]-6-(4-oxo-2-thioxo-thiazolidin-5-ylidenemethyl)-4H-1,4-benzoxazin-3-one]
23 | 12 nM | CC(=O)OCc1cc(CN2C(=O)COc3ccc(C=C4SC(=S)NC4=O)cc32)cc(C(C)(C)C)c1 [Example 70, Acetic acid 3-tert-butyl-5-[3-oxo-6-(4-oxo-2-thioxo-thiazolidin-5-ylidenemethyl)-2,3-dihydro-1,4-benzoxazin-4-ylmethyl]-benzyl ester]
24 | 9 nM | CC(C)(C)c1cc(C#N)cc(CN2C(=O)COc3ccc(C=C4SC(=S)NC4=O)cc32)c1 [Example 55, 3-tert-Butyl-5-[3-oxo-6-(4-oxo-2-thioxo-thiazolidin-5-ylidenemethyl)-2,3-dihydro-1,4-benzoxazin-4-ylmethyl]-benzonitrile]
25 | 6 nM | O=C1NC(=O)C(=Cc2cc(F)c3c(c2)N(Cc2ccc(CN4CCCCC4)cc2)C(=O)CO3)S1 [Example 76, 5-[8-Fluoro-3-oxo-4-(4-piperidin-1-ylmethyl-benzyl)-3,4-dihydro-2H-1,4-benzoxazin-6-ylmethylene]-thiazolidine-2,4-dione]
